Experiments:
Type in all cases: in vivo, rat
[1] = system: rats bearing Walker-256 tumor; assay: Biodistribution studies with Walker-256 carcinosarcoma; conditions: i.v., Walker-256 tumor-bearing rats, mean ± SEM
Protocol: The three radiolabelled compounds illustrated in FIG. 5, including the improved C-18 analog 18-(p-iodophenyl)octadecyl phosphocholine (Compound XVI) described in Example 2, were prepared and administered to two sets of female Sprague Dawley rats (Charles River, Portage, Mich.). One normal set was used as a control, and one set was inoculated with Walker-256 carcinosarcoma cells (5×10^6 cells) in 0.2 ml saline in the right hindlimb. The Walker carcinoma cell line was provided by Dr. James Varani of the Department of Pathology at the University of Michigan, and is an accepted cell line representative of effect in humans. See, e.g. Tayck et al., “Influence of the Walker 256 Carcinosarcoma on Muscle, Tumor, and Whole-Body Protein Synthesis and Growth Rate in the Cancer-Bearing Rat, Cancer Res. 46:5649-54 (1986).
The animals were used 6-8 days later when the tumor weight averaged 10 g. The radiolabelled compounds were dissolved in absolute ethanol (50-500 μl) and Tween-20 (0.1 ml/mg of compound) was added to the solution. Ethanol was removed by evaporation under a stream of nitrogen. Physiological saline or sterile water was added, to give a 2-3% Tween-20 solution which was subsequently mixed by vortex. The solubilized radiolabelled compounds (5-10 μCi, 0.3 ml) were administered intravenously via the tail vein to tumor bearing rats, and the animals were sacrificed by exsanguination while under ether anesthesia at the various time points. Blood samples were collected through cardiac puncture and selected tissues (liver, kidney, etc.) were removed, trimmed, blotted to remove excess blood and weighed. Large organs were thoroughly minced with scissors to obtain random representative tissue samples.
For the biodistribution experiments with 12-(p-iodophenyl)dodecyl phosphocholine, weighed tissue samples were counted with a well scintillation counter (85% counting efficiency). The concentration of radioactivity in each tissue was expressed as a percentage of administered dose per gram of tissue.
Tissue distribution was assessed at various times following administration of the radioiodinated chain length isomers. The results are expressed as the mean % administered dose per gram±SEM (% Dose/g±SEM).

[2] = system: rats bearing Dunning (MATLyLu) prostate tumors; assay: Biodistribution studies with Dunning prostate tumor; conditions: i.v., Dunning MAT-LyLu prostate tumor-bearing rats, mean ± SEM
Protocol: The three radiolabelled compounds illustrated in FIGS. 7A-7C, including the improved C-18 analogs 18-(p-iodophenyl)octadecyl phosphocholine (Compound XVI—FIG. 7B) and 1-O-[18-(p-iodophenyl)octadecyl]-1,3-propanediol-3-phosphocholine (Compound XIV—FIG. 7C) described in Examples 2 and 3, respectively, were prepared and administered to two sets of male Copenhagen rats (Harlan Sprague-Dawley, Indianapolis, Ind.). One group of normal animals was used as a control, and another group was inoculated with Dunning prostate tumor cells (1×10^6 MAT-LyLu cells) in 0.2 ml saline in the right hindlimb. The MAT-LyLu subline of the Dunning (R-3327) adenocarcinoma prostate tumor was provided by Dr. Ken Pienta of the Department of Urology at the University of Michigan, and is an accepted cell line representative of effect in humans. See, e.g., Pienta et al., “Inhibition of Spontaneous Metastasis in a Rat Prostrate Cancer Model by Oral Administration of Modified Citrus Pectin, J. Natl. Cancer Inst. 87:348-53 (1995).
The animals were maintained with free access to food and water until day 8-10. The radioiodinated phospholipid ether analog formulated in 2% Tween 20—sterile water (5-10 μCi, 0.3-0.4 ml, described above in Example 6) was administered intravenously into the tail vein of the tumor-bearing animals under metofane anesthesia. The animals were euthanized at selected time points after injection (n=3 per time point) and samples of blood, plasma and a variety of tissues including tumor and prostate are collected and analyzed for radioiodine content. Biodistribution values are calculated as the mean of the individual % administered dose per gram of tissue and % dose per organ values.

[3] = system: Dunning R3327 prostate tumor-bearing animals; assay: Gamma camera scintigraphy studies with Dunning R3327 prostate tumor; conditions: >40 μCi injected, 125I window, static fifteen-minute images
Protocol: Comparative in vivo scintigaphic studies were also conducted using the C-12 analog 12-(p-iodophenyl)dodecyl phosphocholine and the C-18 analogs 18-(p-iodophenyl)octadecyl phosphocholine (Compound XVI) and 1-O-[18-(p-iodophenyl)octadecyl]-1,3-propanediol-3-phosphocholine (Compound XIV) utilized in Example 7. The imaging studies were performed on Dunning R3327 prostate tumor-bearing animals injected with >40 μCi of the radioiodinated phospholipid ether formulations described above. The anesthetized animals were imaged at selected times after injection on a gamma camera set to the ^125I window and outfitted with a low energy collimator. Static fifteen-minute images were obtained for each animal at the specified time. The results are illustrated in FIGS. 8A-8C.

## 12-(p-iodophenyl)dodecyl phosphocholine [C-12 Analog]
[1]; 24 hr
  mean % administered dose per gram, Adrenal: 0.33 ± 0.01 % Dose/g
  mean % administered dose per gram, Duodenum: 1.35 ± 0.13 % Dose/g
  mean % administered dose per gram, Kidney: 4.10 ± 0.44 % Dose/g
  mean % administered dose per gram, Liver: 1.62 ± 0.17 % Dose/g
  mean % administered dose per gram, Lung: 1.06 ± 0.04 % Dose/g
  mean % administered dose per gram, Plasma: 0.39 ± 0.05 % Dose/g
  mean % administered dose per gram, Tumor: 2.99 ± 0.34 % Dose/g
[1]; 48 hr
  mean % administered dose per gram, Adrenal: 0.29 ± 0.01 % Dose/g
  mean % administered dose per gram, Duodenum: 0.77 ± 0.06 % Dose/g
  mean % administered dose per gram, Kidney: 3.44 ± 0.08 % Dose/g
  mean % administered dose per gram, Liver: 1.37 ± 0.01 % Dose/g
  mean % administered dose per gram, Lung: 0.53 ± 0.01 % Dose/g
  mean % administered dose per gram, Plasma: 0.39 ± 0.05 % Dose/g
  mean % administered dose per gram, Tumor: 1.84 ± 0.09 % Dose/g
[1]; Blood, 24 hr
  mean % administered dose per gram, Blood: 0.27 ± 0.04 % Dose/g
[1]; Blood, 48 hr
  mean % administered dose per gram, Blood: 0.27 ± 0.03 % Dose/g
[1]; Blood, 120 hours
  blood levels: 0.22±0.03 % Dose/g
[2]; 24 hr
  mean % administered dose per gram, Adrenal: 0.29 ± 0.01 % Dose/g
  mean % administered dose per gram, Blood: 0.23 ± 0.02 % Dose/g
  mean % administered dose per gram, Kidney: 4.45 ± 0.27 % Dose/g
  mean % administered dose per gram, Liver: 1.27 ± 0.02 % Dose/g
  mean % administered dose per gram, Lung: 0.48 ± 0.03 % Dose/g
  mean % administered dose per gram, Plasma: 0.32 ± 0.03 % Dose/g
  mean % administered dose per gram, Tumor: 0.37 ± 0.03 % Dose/g
[2]; 48 hr
  mean % administered dose per gram, Adrenal: 0.23 ± 0.01 % Dose/g
  mean % administered dose per gram, Blood: 0.22 ± 0.01 % Dose/g
  mean % administered dose per gram, Kidney: 3.38 ± 0.43 % Dose/g
  mean % administered dose per gram, Liver: 1.05 ± 0.03 % Dose/g
  mean % administered dose per gram, Lung: 0.33 ± 0.02 % Dose/g
  mean % administered dose per gram, Plasma: 0.32 ± 0.01 % Dose/g
  mean % administered dose per gram, Tumor: 0.30 ± 0.01 % Dose/g
[3]
  tumor localization in gamma camera scintigraphy images: tumor was barely visible

From patent US6417384B1, “Radioiodinated phospholipid ether analogs and methods of using the same” (The Regents of the University of Michigan, priority 1999, dated 2002)
